Data taken from patent US12180226B2, “Spirotricycle RIPK1 inhibitors and methods of uses thereof” (Merck Sharp & Dohme LLC, priority 2021, dated 2024).

Target: RIPK1 (recombinant GST-RIPK1 kinase domain, residues 1-327) (Homo sapiens (Human), UniProt Q13546)
Experiment: RIPK1-ADP-Glo Enzymatic Assay
Assay type: biochemical
Settings: ADP-Glo; 25 nM GST-RIPK1, 300 μM ATP; assay lower limit ~25 nM; read-out: RIPK1 V0 Ec50
Procedure, shortened: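 Using dephosphorylated MBP (3 μM) as substrate and 300 μM ATP, 25 nM baculovirus-produced enzyme was reacted for 150 min after a 30-min compound pre-incubation. Luminescent ADP detection followed; lower confidence limit ~25 nM.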

RIPK1 (recombinant GST-RIPK1 kinase domain, residues 1-327), sequence (Q13546 1-327): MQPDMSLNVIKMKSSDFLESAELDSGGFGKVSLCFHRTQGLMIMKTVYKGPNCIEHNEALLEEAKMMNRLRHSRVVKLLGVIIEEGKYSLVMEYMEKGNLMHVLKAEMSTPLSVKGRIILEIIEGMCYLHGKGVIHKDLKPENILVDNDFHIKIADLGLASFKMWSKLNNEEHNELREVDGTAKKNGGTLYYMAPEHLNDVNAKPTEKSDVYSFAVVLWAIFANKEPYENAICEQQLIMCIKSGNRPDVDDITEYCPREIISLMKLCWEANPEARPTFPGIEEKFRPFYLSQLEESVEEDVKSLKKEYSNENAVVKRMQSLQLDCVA

EC50 [nM] | Compound
147 | O=C(NC1(C(F)(F)F)CC1)c1nc(N2CCC3(CC2)O[C@@H]2CC[C@@H](c4cc(F)cc(F)c4)N2C3=O)ncc1F [Example 7.10, 2-[(5′S,7a′R)-5′-(3,5-difluorophenyl)-3′-oxotetrahydro-1H,3′H-spiro[piperidine-4,2′-pyrrolo[2,1-b][1,3]oxazol]-1-yl]-5-fluoro-N-[1-(trifluoromethyl)cyclo-propyl]pyrimidine-4-carboxamide]
50.8 | O=C1N2[C@@H](CC[C@H]2c2ccccc2)OC12CCN(c1nc3ccncc3o1)CC2 [Example 4.158, (5′S,7a′R)-1-([1,3]oxazolo[5,4-c]pyridin-2-yl)-5′-phenyltetrahydro-3′H-spiro[piperidine-4,2′-pyrrolo[2,1-b] [1,3]oxazol]-3′-one]
< 25 | O=C1N2[C@H](OC13CCN(c1ccnc4ccnn14)CC3)[C@@H](O)C[C@H]2c1ccccc1 [Example 4.251, (5′S,7′S,7a′R)-7′-hydroxy-5′-phenyl-1-(pyrazolo [1,5-a]pyrimidin-7-yl)tetrahydro-3′H-spiro[piperidine-4,2′-pyrrolo[2,1-b] [1,3]oxazol]-3′-one]
< 25 | COc1cccc(C(=O)N2CCC3(CC2)O[C@@H]2CC[C@@H](c4cccc(F)c4)N2C3=O)c1 [Example 6.117, (5′S,7a′R)-5′-(3-fluorophenyl)-1-(3-methoxybenzene-1-carbonyl)tetrahydro-3′H-spiro[piperidine-4,2′-pyrrolo[2,1-b] [1,3]oxazol]-3′-one]
155 | O=C(c1cn2ccccc2n1)N1CCC2(CC1)O[C@@H]1CC[C@@H](c3cc(F)cc(F)c3)N1C2=O [Example 5.71, (5′S,7a′R)-5′-(3,5-difluoro-phenyl)-1-(imidazo[1,2-a]-pyridine-2-carbonyl)tetra-hydro-3′H-spiro[piperidine-4,2′-pyrrolo[2,1-b]oxazol]-3′-one]
< 25 | O=C1N2[C@@H](CC[C@H]2c2ccccc2F)OC12CCN(c1ccnc3ccnn13)CC2 [Example 4.103, (5′S,7a′R)-5′-(2-fluorophenyl)-1-(pyrazolo[1,5-a]pyrimidin-7-yl)tetrahydro-3′H-spiro[piperidine-4,2′-pyrrolo[2,1-b]oxazol]-3′-one]
< 25 | O=C1N2[C@@H](CC[C@H]2c2ccccc2F)OC12CCN(c1ncc(Br)c3ncnn13)CC2 [Example 4.240, (5′S,7a′R)-1-(8-bromo [1,2,4]triazolo[1,5-c]pyrimidin-5-yl)-5′-(2-fluorophenyl)tetrahydro-3′H-spiro[piperidine-4,2′-pyrrolo[2,1-b] [1,3]oxazol]-3′-one]
< 25 | O=C1N2[C@@H](CC[C@H]2c2cc(F)cc(F)c2)OC12CCN(c1ncnc3ccnn13)CC2 [Example 4.128, (5′S,7a′R)-5′-(3,5-difluorophenyl)-1-(pyrazolo[1,5-a] [1,3,5]triazin-4-yl)tetrahydro-3′H-spiro[piperidine-4,2′-pyrrolo[2,1-b] [1,3]oxazol]-3′-one]
< 25 | O=C(c1cc(Cl)ccc1F)N1CCC2(CC1)O[C@@H]1CC[C@@H](c3cc(F)cc(F)c3)N1C2=O [Example 5.61, (5′S,7a′R)-1-(5-chloro-2-fluorobenzoyl)-5′-(3,5-difluorophenyl)tetrahydro-3′H-spiro[piperidine-4,2′-pyrrolo[2,1-b]oxazol]-3′-one]
< 25 | COc1cc(N2CCC3(CC2)O[C@@H]2CC[C@@H](c4ccccc4)N2C3=O)ncc1C#N [Example 4.220, 4-methoxy-6-[(5′S,7a′R)-3′-oxo-5′-phenyltetrahydro-1H,3′H-spiro[piperidine-4,2′-pyrrolo[2,1-b] [1,3]oxazol]-1-yl]pyridine-3-carbonitrile]
27.6 | O=C1N2[C@@H](CC[C@H]2c2ccccc2)OC12CCN(c1ccc(C3COC3)c3ccnn13)CC2 [Example 18.2, (5′S,7a′R)-1-[4-(oxetan-3-yl)pyrazolo[1,5-a]pyridin-7-yl]-5′-phenyltetrahydro-3′H-spiro[piperidine-4,2′-pyrrolo[2,1-b][1,3]oxazol]-3′-one]
< 25 | CN(C)c1cccc(C(=O)N2CCC3(CC2)O[C@@H]2CC[C@@H](c4ccccc4)N2C3=O)c1 [Example 6.144, (5′S,7a′R)-1-[3-(dimethylamino)ben-zene-1-carbonyl]-5′-phenyltetrahydro-3′H-spiro[piperidine-4,2′-pyrrolo[2,1-b][1,3]oxazol]-3'-one]
< 25 | N#Cc1cc(N2CCC3(CC2)O[C@@H]2CC[C@@H](c4ccccc4)N2C3=O)ccn1 [Example 4.31, 4-[(5′S,7a′R)-3′-oxo-5′-phenyltetrahydro-1H,3′H-spiro[piperidine-4,2′-pyrrolo[2,1-b] [1,3]oxazol]-1-yl]pyridine-2-carbonitrile]
41.2 | COc1cc(N2CCC3(CC2)O[C@@H]2CC[C@@H](c4cccc(F)c4)N2C3=O)ncn1 [Example 4.51, (5′S,7a′R)-5′-(3-fluorophenyl)-1-(6-methoxypyrimidin-4-yl)tetrahydro-3′H-spiro[piperidine-4,2′-pyrrolo[2,1-b] [1,3]oxazol]-3′-one]
145 | O=C1N2[C@@H](CC[C@H]2c2ccccc2F)OC12CN(c1ccnc(-c3cnn(C(F)F)c3)c1)C2 [Example 4.138, (5′S,7a′R)-1-{2-[1-(difluoromethyl)-1H-pyrazol-4-yl]pyridin-4-yl}-5′-(2-fluorophenyl)tetrahydro-3′H-spiro[azetidine-3,2′-pyrrolo[2,1-b] [1,3]oxazol]-3′-one]
56 | O=C1N2[C@@H](CC[C@H]2c2ccccc2)OC12CCN(c1cc(-c3ccc(F)cc3)c([N+](=O)[O-])cn1)CC2 [Example 4.208, (5′S,7a′R)-1-[4-(4-fluorophenyl)-5-nitropyridin-2-yl]-5′-phenyltetrahydro-3′H-spiro[piperidine-4,2′-pyrrolo[2,1-b] [1,3]oxazol]-3′-one]
243 | O=C1N2[C@@H](CC[C@H]2c2cc(F)cc(F)c2)OC12CCN(C(c1ccccc1)C(F)F)CC2 (single isomer, unassigned) [Example 22.2, (5′S,7a′R)-1-(2,2-Difluoro-1-phenylethyl)-5′-(3,5-difluorophenyl)tetrahydro-3′H-spiro[piperidine-4,2′-pyrrolo[2,1-b]oxazol]-3′-one]
< 25 | Cc1ccc(F)c(C(=O)N2CCC3(CC2)O[C@@H]2CC[C@@H](c4cc(F)cc(F)c4)N2C3=O)c1 [Example 6.5, (5′S,7a′R)-5′-(3,5-difluorophenyl)-1-(2-fluoro-5-methyl-benzene-1-carbonyl) tetrahydro-3′H-spiro [piperidine-4,2′-pyrrolo[2,1-b][1,3]oxazol]-3′-one]
< 25 | O=C1N2C(CCC2c2cc(F)cc(F)c2)SC12CCN(c1ccnc3c(F)cnn13)CC2 (stereo not drawn) [Example 4.110, 5′-(3,5-difluorophenyl)-1-(3-fluoropyrazolo[1,5-a]pyrimidin-7-yl)tetrahydro-3′H-spiro[piperidine-4,2′-pyrrolo[2,1-b]thiazol]-3′-one]
34.9 | Cc1ocnc1C(=O)N1CCC2(CC1)O[C@@H]1CC[C@@H](c3ccccc3)N1C2=O [Example 6.146, (5′S,7a′R)-1-(5-methyl-1,3-oxazole-4-carbonyl)-5′-phenyl-tetrahydro-3′H-spiro [piperidine-4,2′-pyrrolo[2,1-b][1,3]oxazol]-3′-one]
150 | N#CN1CCC2(CC1)O[C@@H]1CC[C@@H](c3cc(F)cc(F)c3)N1C2=O [Example 4.48, (5′S,7a′R)-5′-(3,5-difluorophenyl)-3′-oxotetrahydro-1H,3′H-spiro[piperidine-4,2′-pyrrolo[2,1-b] [1,3]oxazole]-1-carbonitrile]
388 | O=C(c1cnc(C(F)(F)F)cn1)N1CCC2(CC1)O[C@@H]1CC[C@@H](c3cc(F)cc(F)c3)N1C2=O [Example 6.1, (5′S,7a′R)-5′-(3,5-Difluorophenyl)-1-(5-(trifluoromethyl)pyrazine-2-carbonyl)tetrahydro-3′H-spiro[piperidine-4,2′-pyrrolo[2,1-b]oxazol]-3′-one]
< 25 | COc1cc(N2CCC3(CC2)O[C@@H]2CC[C@@H](c4cc(F)cc(F)c4)N2C3=O)ncc1C#N [Example 4.43, 6-[(5′S,7a′R)-5′-(3,5-difluorophenyl)-3′-oxotetrahydro-1H,3′H-spiro[piperidine-4,2′-pyrrolo[2,1-b] [1,3]oxazol]-1-yl]-4-methoxypyridine-3-carbonitrile]
757 | O=C1N2[C@@H](CC[C@H]2c2ccccc2)OC12CCN(c1nnc(C(F)(F)F)s1)CC2 [Example 11.27, (5′S,7a′R)-5′-phenyl-1-[5-(trifluoromethyl)-1,3,4-thiadiazol-2-yl]tetrahydro-3′H-spiro[piperidine-4,2′-pyrrolo[2,1-b][1,3]oxazol]-3′-one]
< 25 | Cc1cc(F)c(C(=O)N2CCC3(CC2)O[C@@H]2CC[C@@H](c4ccccc4)N2C3=O)cc1F [Example 5.12, (5′S,7a′R)-1-(2,5-difluoro-4-methylbenzene-1-car-bonyl)-5′-phenyltetra-hydro-3′H-spiro[piperi-dine-4,2′-pyrrolo[2,1-b] [1,3]oxazol]-3′-one]
< 25 | O=C1N2[C@@H](CC[C@H]2c2ccccc2)OC12CCN(c1ccnc3c(F)cnn13)CC2 [Example 4.1, (5′S,7a′R)-1-(3-fluoropyrazolo[1,5-a]pyrimidin-7-yl)-5′-phenyltetrahydro-3′H-spiro[piperidine-4,2′-pyrrolo[2,1-b]oxazol]-3′-one]
624 | O=C1N2[C@@H](CC[C@H]2c2ccccc2)OC12CCN(c1ccc(C3CC3)cn1)CC2 [Example 11.19, (5′S,7a′R)-1-(5-cyclopropylpyridin-2-yl)-5′-phenyltetrahydro-3′H-spiro[piperidine-4,2′-pyrrolo[2,1-b][1,3]oxazol]-3′-one]
